Converted amounts (≈) assume the structure as drawn. Read-outs that look alike come from different tables or passages of the source. Each block holds one compound with its values, some of them ahead of it.
Experiments:
[1] = Ionization state calculated from pKa and buffer pH; format: physicochemical
[2] = cited from earlier work; for Filtration: Result Range: % of reference, all filters
[3] = Equilibrium solubility, saturation shake-flask, centrifugation as phase separation; settings: for solubility thermodynamic at 24 h / solubility thermodynamic: Britton-Robinson buffer; for solubility thermodynamic at 24 h: continuously stirred, no sedimentation; for solubility thermodynamic: pH 7.4, Equilibrium solubility S sed, sedimented before centrifugation
[4] = Equilibrium solubility, saturation shake-flask, sedimentation as phase separation (reference, standard protocol); settings: for solubility: Britton-Robinson buffer, 6 h stirring, 18 h sedimentation, 25 °C
[5] = cited from earlier work
[6] = pH 7.4
[7] = cited from earlier work; remark: listed apart in the source

Fraction ionized ([1]; pH 2.0): about 1%
Fraction ionized ([1]; pH 4.0): around 50%
solubility thermodynamic at 24 h ([3]; 25 °C, pH 10, aqueous buffer, thermodynamic from solid, Equilibrium solubility S stir, pH 10.0, 10,000 rpm, 20 min): 11200 µg/mL
solubility thermodynamic at 24 h ([3]; pH 2, Equilibrium solubility S stir, pH 2.0, 5000 rpm, 5 min): 1.64 ± 0.04 µg/mL
solubility thermodynamic at 24 h ([3]; pH 2, Equilibrium solubility S stir, pH 2.0, 5000 rpm, 10 min): 1.52 ± 0.22 µg/mL
solubility thermodynamic at 24 h ([3]; pH 2, Equilibrium solubility S stir, pH 2.0, 5000 rpm, 20 min): 1.71 ± 0.07 µg/mL
solubility thermodynamic at 24 h ([3]; pH 2, Equilibrium solubility S stir, pH 2.0, 10,000 rpm, 5 min): 1.82 ± 0.07 µg/mL
solubility thermodynamic at 24 h ([3]; pH 2, Equilibrium solubility S stir, pH 2.0, 10,000 rpm, 10 min): 1.78 ± 0.07 µg/mL
solubility thermodynamic at 24 h ([3]; pH 2, Equilibrium solubility S stir, pH 2.0, 10,000 rpm, 20 min): 2 ± 0.13 µg/mL
solubility thermodynamic at 24 h ([3]; pH 4, Equilibrium solubility S stir, pH 4.0, 5000 rpm, 5 min): 2.7 ± 0.1 µg/mL
solubility thermodynamic at 24 h ([3]; pH 4, Equilibrium solubility S stir, pH 4.0, 5000 rpm, 10 min): 2.69 ± 0.24 µg/mL
solubility thermodynamic at 24 h ([3]; pH 4, Equilibrium solubility S stir, pH 4.0, 5000 rpm, 20 min): 2.58 ± 0.16 µg/mL
solubility thermodynamic at 24 h ([3]; pH 4, Equilibrium solubility S stir, pH 4.0, 10,000 rpm, 5 min): 2.79 ± 0.2 µg/mL
solubility thermodynamic at 24 h ([3]; pH 4, Equilibrium solubility S stir, pH 4.0, 10,000 rpm, 10 min): 2.8 ± 0.11 µg/mL
solubility thermodynamic at 24 h ([3]; pH 4, Equilibrium solubility S stir, pH 4.0, 10,000 rpm, 20 min): 2.88 ± 0.18 µg/mL
solubility thermodynamic at 24 h ([3]; pH 10, Equilibrium solubility S stir, pH 10.0, 5000 rpm, 10 min): 9810 ± 318 µg/mL
solubility thermodynamic at 24 h ([3]; pH 10, Equilibrium solubility S stir, pH 10.0, 5000 rpm, 20 min): 10700 µg/mL
solubility thermodynamic at 24 h ([3]; pH 10, Equilibrium solubility S stir, pH 10.0, 10,000 rpm, 5 min): 9660 ± 760 µg/mL
Centrifugation: Closest to Reference (100%) ([3]; pH 2.0): 100%
Centrifugation: Closest to Reference (100%) ([3]; pH 4.0): 99%
Centrifugation: Closest to Reference (100%) ([3]; pH 10.0): 98%
solubility ([4]; pH 2, Solubility (reference), pH 2.0): 1.67 ± 0.05 µg/mL
solubility ([4]; pH 10, Solubility (reference), pH 10.0): 9470 ± 327 µg/mL
Increase of solubility compared to the unionized form ([4]; pH 10.0 (fully ionized) vs unionized form): 5670 fold
SMILES: O=C(O)Cc1ccccc1Nc1c(Cl)cccc1Cl [DICL-NA, Diclofenac sodium]
Measured concentration after filtration ([2]; nylon filter, low pH values): dropped to zero
Filtration: Result Range ([2]; pH 2.0): 0–164%
Filtration: Closest to Reference (100%) ([2]; pH 2.0): 93%
Filtration: Result Range ([2]; pH 4.0): 0–103%
Filtration: Closest to Reference (100%) ([2]; pH 4.0): 103%
Filtration: Result Range ([2]; pH 10.0): 64–99%
Filtration: Closest to Reference (100%) ([2]; pH 10.0): 99%

SMILES: NS(=O)(=O)c1cc2c(cc1Cl)NCNS2(=O)=O [HCT, hydrochlorothiazide]
Fraction in dianionic form ([1]; pH 8.8): 4%
Fraction monoanionic ([1]; pH 8.8): 51%
Fraction unionized ([1]; pH 8.8): 45%
Filtration: Result Range ([2]; pH 6.0): 83–103%
Filtration: Closest to Reference (100%) ([2]; pH 6.0): 102%
Filtration: Result Range ([2]; pH 8.8): 75–100%
Filtration: Closest to Reference (100%) ([2]; pH 8.8): 100%
Filtration: Result Range ([2]; pH 11.0): 65–119%
Filtration: Closest to Reference (100%) ([2]; pH 11.0): 100%
pKa ([5]; first pKa for HCT): 8.75
pKa (second value) ([5]; second pKa of the diprotic acid): 9.96

Centrifugation: Closest to Reference (100%) [6]: 121%
Centrifugation: Result Range [6]: 121–148%
solubility thermodynamic ([3]; pH 7.4, 5000 rpm, 5 min): 10.9 ± 0.09 µg/mL (≈ 34.7 µM)
solubility thermodynamic ([3]; pH 7.4, 5000 rpm, 10 min): 10.9 ± 0.09 µg/mL (≈ 34.7 µM)
solubility thermodynamic ([3]; pH 7.4, 5000 rpm, 20 min): 11.5 ± 0.06 µg/mL (≈ 36.6 µM)
solubility thermodynamic ([3]; pH 7.4, 10,000 rpm, 5 min): 11 ± 0.12 µg/mL (≈ 35 µM)
solubility thermodynamic ([3]; pH 7.4, 10,000 rpm, 10 min): 11.6 ± 0.11 µg/mL (≈ 36.9 µM)
solubility thermodynamic ([3]; pH 7.4, 10,000 rpm, 20 min): 12.4 ± 0.06 µg/mL (≈ 39.4 µM)
solubility thermodynamic at 24 h ([3]; pH 7.4, Equilibrium solubility S stir, pH 7.4, 5000 rpm, 5 min): 11 ± 0.06 µg/mL (≈ 35 µM)
solubility thermodynamic at 24 h ([3]; pH 7.4, Equilibrium solubility S stir, pH 7.4, 5000 rpm, 10 min): 11.3 ± 0.14 µg/mL (≈ 35.9 µM)
solubility thermodynamic at 24 h ([3]; pH 7.4, Equilibrium solubility S stir, pH 7.4, 5000 rpm, 20 min): 12.8 ± 0.05 µg/mL (≈ 40.7 µM)
solubility thermodynamic at 24 h ([3]; pH 7.4, Equilibrium solubility S stir, pH 7.4, 10,000 rpm, 5 min): 11 ± 0.18 µg/mL (≈ 35 µM)
solubility thermodynamic at 24 h ([3]; pH 7.4, Equilibrium solubility S stir, pH 7.4, 10,000 rpm, 10 min): 11.7 ± 0.14 µg/mL (≈ 37.2 µM)
solubility thermodynamic at 24 h ([3]; pH 7.4, Equilibrium solubility S stir, pH 7.4, 10,000 rpm, 20 min): 13.3 ± 0.2 µg/mL (≈ 42.3 µM)
Increase in measured solubility caused by centrifugation ([3]; vs reference, pH 7.4): at least 20%
solubility ([4]; pH 7.4, Solubility (reference), pH 7.4): 8.98 ± 0.09 µg/mL (≈ 28.6 µM)
SMILES: CC(=O)[C@H]1CC[C@H]2[C@@H]3CCC4=CC(=O)CC[C@]4(C)[C@H]3CC[C@]12C [PROG, progesterone]
Filtration: Result Range ([2]; pH 7.4): 55–98%
Filtration: Closest to Reference (100%) ([2]; pH 7.4): 98%
logP [7]: 3.48

— PMC12566593, “Effects of Different Centrifugation Parameters on Equilibrium Solubility Measurements” (Methods and Protocols, 2025)
